This test concerns A549. Description: Cytotoxicity against human A549 cells by SRB assay. The class given is functional, cell-based. On the technique in general: The SRB assay estimates cell density from bound dye.

Each structure is given as a SMILES string.

`COC(=O)C1=C2Nc3c(OC)cccc3[C@@]23CCN2C[C@@H]([C@H](C)O)[C@@H]1C[C@H]23`: half-maximal inhibition (IC50) required 11.5 µM. As for `C/C=C1/CN2CC[C@]34C(=C(C(=O)OC)[C@H]1C[C@H]23)Nc1ccccc14` [AKUAMMICINE], the IC50 (usually the concentration at which inhibition is half-maximal) was found to be 15 µM.

Values taken from ChEMBL document CHEMBL1157217, “Terpenoid indole alkaloids from Winchia calophylla” (J Nat Prod, 2006).
